We go through one compound from publication PMC8512560, “Design, Synthesis, and Antipoliferative Activities of Novel Substituted Imidazole-Thione Linked Benzotriazole Derivatives” (Molecules, 2021).

Test [1] has as its system MCF-7 human breast cancer cell line. Kind of test: MTT viability assay, MCF-7. In kind it is cell-based. Particulars: Homo sapiens, MCF7, 72 h, mean ± SD of three independent experiments, read-out: Antiproliferative Activities IC50, MCF-7. The method, then:
All the human tumour cell lines MCF-7, HL-60, HCT-116, and HUVEC were cultured in Dulbecco’s Modified Eagle’s Medium (DMEM) with 10% fetal bovine serum, 2 mM L-glutamine and 100 µg/mL penicillin/streptomycin. Cells were maintained at 37 °C in 5% CO2 in a humidified incubator. All cells were sub-cultured three times/week by trypsinization using TrypLE Express (1X).
The Benzotriazole compounds were evaluated for antiproliferative effect using the MTT viability assay of various cancer cell lines (MCF-7, HCT-116 and HL-60) and the normal human umbilical vein endothelial cell line (HUVEC) to calculate the relative IC50 values for each compound. Cells were seeded in triplicate in 96-well plates at a density of 10 × 10^3 cells/mL in a total volume of 200 µL per well. 0.1% of DMSO was used as a vehicle control. After this time, they were treated with 2 µL test compound which had been pre-prepared as stock solutions in ethanol to furnish the concentration range of study, 10 nM to 100 µM, and re-incubated for a further 72 h. The culture medium was then removed, and the cells washed with 100 µL phosphate buffered saline (PBS) and 50 µL MTT added, to reach a final concentration of 1 mg/mL MTT added. Cells were incubated for 2 h in darkness at 37 °C. At this point solubilisation was begun through the addition of […] DMSO and the cells maintained at room temperature in darkness for 20 min to ensure thorough colour diffusion before reading the absorbance. Plates were incubated for 72 h at 37 °C + 5% CO2. The MTT (5 mg/mL in PBS) was added and incubated for another 4 h, and the optical density was detected with a microplate reader at 570 nm. Results were expressed as percentage viability relative to vehicle control (100%). Dose response curves were plotted and IC50 values (concentration of drug resulting in 50% reduction in cell survival) were obtained using the commercial software package Prism (GraphPad Software, Inc., La Jolla, CA, USA). All the experiments were repeated in at least three independent experiments.

Test [2] relates to colchicine binding site of tubulin. Briefly: Colchicine site competitive binding assay ([3H]colchicine). Particulars: tubulin and colchicine at 1 and 5 µM. The method, then: The affinity of Benzotriazole compounds to colchicine binding site was determined using a Colchicine Site Competitive Assay kit CytoDYNAMIX Screen15 (Cytoskeleton, Inc., Denver, CO, USA) using the standard protocol of the manufacturer to determine Ki values (μM). Biotin-labelled tubulin ([…]) and the test compounds (positive control colchicine, negative control vinblastine, G-1, fluorescent G-1, or 2-ME) in a 96-well plate (final volume: 100 μL). After incubating for 2 h at 37 °C with gentle shaking, streptavidin-labelled yttrium SPA beads (80 μg in 20 μL reaction buffer, PerkinElmer, Waltham, MA) were added to each well and incubated for 30 min at 4 °C. The plates were then read on a scintillation counter (Packard Instrument, Topcount Microplate Reader) and the percentage of inhibition was calculated.

The subject of test [3] is HL-60 cells. Briefly: Cell cycle analysis by PI flow cytometry. In kind it is cell-based, human. Particulars: 1 µM. As to the method:
HL-60 cells were seeded at a density of 1 × 10^5 cells/well in 6-well plates and treated with CA-4 and compound BI9 (1 µM) for 48 and 72 h. The cells were collected by trypsinization and centrifuged at 800× g for 15 min. Cells were washed twice with ice-cold PBS and fixed in ice-cold 70% ethanol overnight at −20 °C. Fixed cells were centrifuged at 800× g for 15 min and stained with 50 μg/mL of PI, containing 50 μg/mL of DNase-free RNase A, at 37 °C for 30 min. The DNA content of cells (10,000 cells/experimental group) was analysed by flow cytometer at 488 nm using a FACSCalibur flow cytometer (BD Biosciences, San Jose, CA, USA) and all data were recorded and analysed using the CellQuest Software (Becton-Dickinson).

In test [4] the test system is BAX. Kind of test: Western blot of BAX expression in HL-60 cells. Particulars: HL-60, 0.5 and 1 µM, compared to the untreated group. In kind it is cell-based, human. As to the method:
HL-60 cells were seeded at a density of 1 × 10^5 cells/flask in T25 flasks. […] HL-60 cells were harvested in RIPA buffer supplemented with protease inhibitors (Roche Diagnostics), phosphatase inhibitor cocktail 2 (Sigma-Aldrich), and phosphatase inhibitor cocktail 3 (Sigma-Aldrich). Equal quantities of protein (as determined by a BCA assay) were resolved by SDS-PAGE (12%) followed by transfer to PVDF membranes. Membranes were blocked in 5% bovine serum albumin/TBST for 1 h. Membranes were incubated in the relevant primary antibodies at 4 °C overnight, washed with TBST, and incubated in horseradish peroxidase conjugated secondary antibody for 1 h at rt and washed again. Western blot analysis was performed as described above using antibodies directed against BAX [1:1000] (Cell Signaling Technology), PARP [1:500] (Cell Signaling Technology) and Bcl-2 [1:500] (Cell Signaling Technology) followed by incubation with a horseradish peroxidase-conjugated anti-mouse antibody [1:2000] (Promega, Madison, WI, USA). All blots were probed with β-actin antibody [1:5000] (Sigma) to confirm equal loading. Proteins were detected using enhanced chemiluminescent Western blot detection (Clarity Western ECL substrate) (Bio Rad) on the ChemiDoc MP System (Bio Rad). Experiments were performed on three independent occasions.

The subject of test [5] is PARP. Kind of test: Western blot of PARP cleavage in HL-60 cells. Format: cell-based, human. The note with it: HL-60, after a 48 h treatment. As to the method:
HL-60 cells were seeded at a density of 1 × 10^5 cells/flask in T25 flasks. After 48 h, whole cell lysates were prepared from untreated cells or cells treated with vehicle control (EtOH, 0.1% v/v) or compound BI9 (0.5 and 1 μM). HL-60 cells were harvested in RIPA buffer supplemented with protease inhibitors (Roche Diagnostics), phosphatase inhibitor cocktail 2 (Sigma-Aldrich), and phosphatase inhibitor cocktail 3 (Sigma-Aldrich). Equal quantities of protein (as determined by a BCA assay) were resolved by SDS-PAGE (12%) followed by transfer to PVDF membranes. Membranes were blocked in 5% bovine serum albumin/TBST for 1 h. Membranes were incubated in the relevant primary antibodies at 4 °C overnight, washed with TBST, and incubated in horseradish peroxidase conjugated secondary antibody for 1 h at rt and washed again. Western blot analysis was performed as described above using antibodies directed against BAX [1:1000] (Cell Signaling Technology), PARP [1:500] (Cell Signaling Technology) and Bcl-2 [1:500] (Cell Signaling Technology) followed by incubation with a horseradish peroxidase-conjugated anti-mouse antibody [1:2000] (Promega, Madison, WI, USA). All blots were probed with β-actin antibody [1:5000] (Sigma) to confirm equal loading. Proteins were detected using enhanced chemiluminescent Western blot detection (Clarity Western ECL substrate) (Bio Rad) on the ChemiDoc MP System (Bio Rad). […]
On the technique in general: A western blot detects proteins with antibodies after separation by electrophoresis.

SMILES strings stand for the structures. Several values for one entry are separate records, joined by “and”; a condition that tells them apart may be missing. Equal entries are not always repeated.

As usually defined, the IC50 is the concentration at which inhibition is half-maximal. Consider `S=c1[nH]c(-n2nnc3ccccc32)cn1-c1ccc(Cl)cc1Cl` [BI9, 4-(1H-Benzo[d][1,2,3]Triazol-1-yl)-1-(2,4-Dichlorophenyl)-1H-Imidazole-2(3H)-Thione], for which, in test [1], the 50% inhibitory concentration (IC50) was 3.57 ± 0.16 µM. Further, in test [2] (1 µM drug), the “Colchicine Binding % ± SD (inhibition of [3H]colchicine binding), 1 µM Drug” value was 49% and 49.38 ± 2%. Further, in test [2] (5 µM drug), the “Colchicine Binding % ± SD (inhibition of [3H]colchicine binding), 5 µM Drug” value was 66% and 66.57 ± 2%. Moreover, the “Proportion of HL-60 cells in G2/M phase” value is 32.3% in test [3] (48 h) and 35.1% in test [3] (72 h). Also, the “Population in the sub-G1 phase (apoptosis)” value in test [3] (48 h, untreated cells 1.5%) amounted to 23.1%; in test [3] (72 h, untreated cells 3.5%) it was 27.5%. In addition, the “Expression level of pro-apoptotic Bax protein” value in test [4] is “significantly up-regulated”. Besides, the “PARP cleavage (indicator of apoptosis)” value in test [5] is listed as “confirmed”.
